Laboratory results: patent US9511086B2, “Method for improving immune system function by administering agents that inhibit DNA-dependent protein kinase-directed apoptosis” (The Board of Trustees of the Leland Stanford Junior …, priority 2010, dated 2016)

How the values were obtained:
[1] = molecular target: TNFα (Homo sapiens, UniProt P01375); conditions: cited from earlier work
[2] = test system: CD4+CD45RO− T cells from RA patients and controls; test: T-cell apoptosis (PI) with homeostatic cytokines; format: cell-based, human; conditions: 72 h culture; IL-2 20 U/ml, IL-7 20 ng/ml, IL-15 10 ng/ml; similar in control and RA T cells
Protocol: FIG. 1. […] CD4+CD45RO− T cells were isolated from the peripheral blood of RA patients and controls. Cells were maintained in culture without mitogenic stimulation for 72 h. (A) T cells undergoing apoptosis were identified by Annexin V and 7-AAD staining in patient-derived and control samples. Data are given as mean±SEM from 6 patients and 6 controls. (B) Representative data from one patient and one control collected after 72 h are shown. (C) Cells were maintained in culture with IL-2 (20 U/ml), IL-7 (20 ng/ml), IL-15 (10 ng/ml), or a mixture of the three (Mix) for 72 h. T cells undergoing apoptosis were identified by PI staining. Data are given as mean±SEM from 7 patients and 5 controls. (D) DNA breaks were quantified by comet assay after 72 h. Data are given as mean±SEM of 7 patients and 6 controls with a minimum of 90 individual cells analyzed in each sample.
To quantify T-cell apoptosis, CD4^+CD45RO^− cells were washed and suspended in 500 μl FACS buffer supplemented with EasyComp Blank Particles (Spherotech, Lake Forest, Ill.). Uptake of PI (Sigma-Aldrich) was determined by flow cytometry. Apoptotic cells were detected with PE-Annexin V (BD Biosciences, San Jose, Calif.) and 7-AAD (BD Biosciences).

[3] = test system: CD4+CD45RO− T cells from RA patients; test: T-cell apoptosis by flow cytometry staining for PI, RA T cells; format: cell-based, human
Protocol: FIG. 5. Inhibition of DNA-PKcs activity protects RA T cells from apoptosis. CD4+CD45RO− T cells were isolated from 6 control donors and 7 RA patients. Cells were maintained in culture without stimulation for 48 h and then were treated with the DNA-PKcs inhibitor IC86621 (50 nM, 100 nM) or vehicle for 24 h. Cells were harvested and (A) T-cell apoptosis was measured by flow cytometry staining for PI. Representative cytometric data from one patient and one control are shown. (B) Frequencies of PI-positive T-cells in the absence and presence of the DNA-PKcs inhibitor from 6 controls and 7 RA patients are presented as mean±SEM.
FIG. 6. Silencing of the DNA-PKcs gene reduces apoptosis in RA T cells. CD4+CD45RO− T cells were purified from 3 control donors and 3 RA patients and transfected with control or DNA-PKcs specific siRNA oligonucleotides by nucleofection. (A, B) Twenty-four hours after transfection, DNA-PKcs transcript levels were quantified by qPCR, and DNA-PKcs protein levels were detected by Western blotting. (C) T-cell apoptosis was analyzed by staining for PI. Representative data from one patient and one control are shown. (D) Cell apoptosis from 3 control and 3 RA samples are presented as mean±SEM.
FIG. 7. […] (A) CD4+CD45RO− T cells were isolated and cultured in the presence of the indicated enzyme inhibitors for 24 h. T-cell apoptosis was quantified through flow cytometry staining for PI. (B) Cells were maintained in culture without stimulation for 48 h and then were treated with the JNK inhibitor. PI-positive T cells were measured after 24 h of treatment with the JNK inhibitor II (5 μM or 10 μM) or vehicle. Frequencies of apoptotic T cells from 6 controls and 7 RA patients are presented as mean±SEM. (C) Representative flow cytometry results from one control and one patient. (D) Flow cytometry analysis of phosphorylated JNK levels in control and RA T cells after culturing without mitogenic stimulation for 72 h. Representative data from one patient and one control are presented. (E) Expression of pJNK protein in n=6 RA and n=6 control samples at 72 h is given as MFI of FITC-pJNK. (F) Flow cytometry analysis of phosphorylated JNK levels in freshly isolated control and RA naïve CD4 T cells. Expression of pJNK protein in n=7 RA and n=7 control samples at day 0 is given as MFI of FITC-pJNK. (G) Quantification of JNK and pJNK protein expression at 72 h by Western blotting. (H) Relative expression levels of pJNK were quantified by measuring band intensities adjusted by total JNK in 6 RA patients and 6 control donors. Data are presented as mean±SEM. (I) CD4+CD45RO− T cells were purified from RA donors and transfected with control or DNA-PKcs-specific siRNA oligonucleotides by nucleofection. Twenty-four hours after transfection, DNA-PKcs and pJNK protein levels were detected by Western blotting. A representative blot from three independent experiments is shown.
Peripheral blood mononuclear cells (PBMC) were separated from whole blood with Lymphocyte Separation Medium (Mediatech Inc., Herndon, Va.). CD45RO^− cells were negatively selected with microbeads (Miltenyi Biotec Inc., Auburn, Calif.), and the naïve CD4^+CD45RO^− population was subsequently selected with CD4 microbeads (autoMACS, Miltenyi Biotec Inc.).
CD4^+CD45RO^− T cells were maintained in a resting state in DMEM without mitogenic stimulation for three days. In selected experiments, T-cell homeostatic cytokines were supplemented. To test for the role of signaling networks in mediating apoptosis, the following inhibitors were added to the cultures at day 0: DNA-PKcs inhibitor IC86621 (Sigma-Aldrich, St. Louis, Mo.), JNK inhibitor II (Calbiochem, La Jolla, Calif.), p38 inhibitor (Alexis Biochemicals, Plymouth Meeting, Pa., SB203580), CaM inhibitor (Calbiochem), NE-KB inhibitor (Calbiochem), and AKT inhibitor (Calbiochem). […]

[4] = test system: Bim; test: Bim protein level by flow cytometry in RA T cells; format: cell-based, human; conditions: treated vs untreated
Protocol: (§1) FIG. 8. The DNA-PKcs-JNK pathway upregulates the apoptogenic molecules Bim and Bmf in RA CD4+ T cells. CD4+CD45RO− T cells were isolated from the peripheral blood of 6 controls and 6 RA patients. Cells were maintained in culture without mitogenic stimulation for 72 h. (A) Puma, Noxa, Bim and Bmf transcript levels in freshly isolated cells were quantified by qPCR. Data are presented as mean±SEM. (B) Flow cytometry analysis of Bim levels in control and RA naïve T cells after 72 h of culture. Expression of Bim protein in n=5 RA and n=5 controls samples is given as MFI of Alexa Fluor 488 Bim. (C) Flow cytometry analysis of Bmf levels in control and RA naïve T cells. Expression of Bmf protein in n=6 RA and n=4 controls samples is given as MFI of PE Bmf. (D) Bcl-2 protein levels were analyzed by flow cytometry. Expression of Bcl-2 protein in n=6 RA and n=6 control samples is given as MFI of FITC Bcl-2. (E) Bim protein level in the absence and presence of the DNA-PKcs inhibitor were analyzed by flow cytometry in samples from 4 RA patients. […]
(§2) For intracellular staining, cells were fixed directly with 1.5% formaldehyde for 10 min at room temperature and resuspended in 90% methanol. […] Proteins or 8-oxoguanine expression were detected by an LSRII flow cytometer (BD Biosciences). Data were analyzed by FlowJo software (Tree Star Inc., Ashland, Oreg.). […]

[5] = test system: Bmf; test: Bmf protein level by flow cytometry in RA T cells; format: cell-based, human; conditions: treated vs untreated
Protocol: as §1, §2

[6] = test system: B cells in blood and tissue; conditions: cynomolgus monkeys; cited from earlier work
[7] = test system: rheumatoid arthritis; conditions: cited from earlier work
[8] = molecular target: T1, IL-1R type I (Homo sapiens, UniProt P14778); conditions: cited from earlier work
T1 sequence (P14778 18-569): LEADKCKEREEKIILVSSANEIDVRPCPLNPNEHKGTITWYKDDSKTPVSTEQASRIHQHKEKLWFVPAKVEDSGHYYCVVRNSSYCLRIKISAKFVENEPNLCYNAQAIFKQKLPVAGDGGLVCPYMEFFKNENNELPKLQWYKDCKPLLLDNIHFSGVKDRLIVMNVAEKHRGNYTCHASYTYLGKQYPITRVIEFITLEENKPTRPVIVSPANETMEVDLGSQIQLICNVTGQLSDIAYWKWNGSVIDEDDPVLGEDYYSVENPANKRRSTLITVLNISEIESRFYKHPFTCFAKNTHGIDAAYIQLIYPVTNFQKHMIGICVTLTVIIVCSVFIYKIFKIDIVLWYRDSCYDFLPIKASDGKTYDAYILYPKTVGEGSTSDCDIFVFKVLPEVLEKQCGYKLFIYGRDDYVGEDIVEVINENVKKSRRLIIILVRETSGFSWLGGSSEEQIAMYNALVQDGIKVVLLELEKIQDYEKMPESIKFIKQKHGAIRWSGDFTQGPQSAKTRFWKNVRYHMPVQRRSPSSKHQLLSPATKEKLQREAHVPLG

Sequence of TNFα (P01375 77-233 limits assumed): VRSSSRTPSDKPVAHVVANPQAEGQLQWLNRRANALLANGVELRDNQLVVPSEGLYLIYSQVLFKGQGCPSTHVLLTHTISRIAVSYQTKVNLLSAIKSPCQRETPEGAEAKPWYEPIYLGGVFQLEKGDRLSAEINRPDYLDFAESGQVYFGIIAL

Etanercept
affinity for TNFα of the dimeric receptor relative to the monomeric receptor [1]: 50-1000 fold

IL-15: growth-promoting, T-cell homeostatic cytokine
apoptosis rates / T-cell attrition [2]: prevented only one-third of the T-cell attrition

O=C1c2ccccc2-c2n[nH]c3cccc1c23 [JNK inhibitor II, anthra(1,9-cd)pyrazol-6(2H)-one]
T cell death in screen with panel of signal pathway inhibitors ([3]; RA T cells cultured with inhibitor for 24 h, PI staining): able to protect RA T cells from dying
death rate in dose-response experiments ([3]; RA T cells, 48 h culture then 5 μM or 10 μM for 24 h): normalize the death rate
effectiveness of 10 μM compared with 5 μM ([3]; RA T cells, PI-positive cells after 24 h of treatment): more effective
intracellular Bim levels [4]: reduced
intracellular Bmf levels [5]: reduced

LymphoStat-B: fully human IgG1λ monoclonal antibody that neutralizes human BlyS
B cells in blood and tissue [6]: selectively reduces B cells in blood and tissue
toxicity [6]: no overt toxicity

CN(Cc1cnc2nc(N)nc(N)c2n1)c1ccc(C(=O)N[C@@H](CCC(=O)O)C(=O)O)cc1 [MTX, Methotrexate]
patients having some response [7]: 70%

Anakinra: human recombinant IL-1 receptor antagonist
affinity of binding to IL-1R type I [8]: same affinity as IL-1

B1: IL-7: growth-promoting, T-cell homeostatic cytokine (protein, UniProt P13232 26-177, looked up)
Interleukin-7: DCDIEGKDGKQYESVLMVSIDQLLDSMKEIGSNCLNNEFNFFKRHICDANKEGMFLFRAARKLRQFLKMNSTGDFDLHLLKVSEGTTILLNCTGQVKGRKPAALGEAQPTKSLEENKSLKEQKKLNDLCFLKRLLQEIKTCWNKILMGTKEH
apoptosis rates / T-cell attrition [2]: prevented only one-third of the T-cell attrition
